According to patent US10166177B2, “Silk protein fragment compositions and articles manufactured therefrom” (Silk, Inc., priority 2013, dated 2019):

How the values were obtained:
Assay type in all cases: physicochemical
[1] = Gel formation with vitamin C derivatives in 2% silk solution; settings: 100 mg of vitamin C derivative in 15 mL of 2% silk solution
Protocol: The Tables in FIGS. 89A-89B summarize embodiments of gels of the present disclosure. Ascorbic acid-2-glucoside was the most successful vitamin C derivative at gel formation with gel being formed in a 2% silk solution in 3 days. […] In all cases 100 mg of vitamin C derivative was mixed in 15 mL of 2% silk solution, and all gels had the same appearance as gels created with ascorbic acid.
Gels were also cast with combinations of two vitamin C options. In each case, at least one of the vitamin C options was known to cause gelation (L-ascorbic acid or ascorbic acid-2-glucoside). All combination gels were able to gel at 1% total vitamin C additive concentration. […] Without wishing to be bound by theory, it appears there is a relationship between vitamin C concentration, silk concentration, and gelation. An increase in vitamin C at a given concentration of silk will result in a longer time to gelation or inhibit gelation. This may be due to the vitamin C molecule physically blocking interaction between silk protein fragments or cross-linking of silk protein. Modification to pH may allow additional concentrations of vitamin C and derivatives thereof to be added.

[2] = Dissolution of vitamin C derivative in aqueous silk solution
Description: Ascorbyl tetraisopalmitate is a highly viscous, oil soluble liquid that might need the help of an emulsifier to possible dissolve in aqueous silk solution.

[3] = HPLC chromatograms of vitamin C samples (degradation products); settings: after 1 hour at ambient conditions without chemical stabilization
Protocol: FIGS. 36A and 36B show HPLC chromatograms from samples comprising vitamin C. […] No degradation products were visible.
FIGS. 36A and 36B show two HPLC chromatograms from samples comprising vitamin C. […] No degradation products were visible. FIG. 59 is a table summarizing the vitamin C concentration in silk protein fragment-films (2% silk films air dried at RT) of the present disclosure. In FIG. 59 processing conditions included 100° C. extraction for 20 min, RT rinse, LiBr in 60° C. oven for 4-6 hours. FIG. 60 is a table summarizing the stability of vitamin C in chemically stabilized solutions. FIGS. 89A-89B are tables summarizing vitamin C stability in SPF gels without chemical stabilizers as compared to chemically stabilized vitamin C in competitive anti-aging skincare products. […] Without wishing to be bound by theory, it appears there is a relationship between vitamin C concentration, silk concentration, and gelation. An increase in vitamin C at a given concentration of silk will result in a longer time to gelation or inhibit gelation. This may be due to the vitamin C molecule physically blocking interaction between silk protein fragments or cross-linking of silk protein.

Row | time to gel formation [1] | SMILES | further results
1 | 3 days | O=C1O[C@H]([C@@H](O)CO)C(O)=C1O[C@H]1O[C@H](CO)[C@@H](O)[C@H](O)[C@H]1O [Ascorbic acid-2-glucoside] | –
2 | – | CCCCCCCCC(CCCCCC)C(=O)OC[C@H](OC(=O)C(CCCCCC)CCCCCCCC)[C@H]1OC(=O)C(OC(=O)C(CCCCCC)CCCCCCCC)=C1OC(=O)C(CCCCCC)CCCCCCCC (some centres unmarked) [Ascorbyl tetraisopalmitate] | ability to dissolve or be dispersed in aqueous silk solution [2]: unable to dissolve or be dispersed
3 | failed to create a gel | O=C1O[C@H]([C@@H](O)CO)C([O-])=C1OP(=O)([O-])[O-].[Na+].[Na+].[Na+] [Sodium Ascorbyl Phosphate (Aromantic), Sodium Ascorbyl Phosphate] | –
4 | 28 days | O=C1O[C@H]([C@@H](O)CO)C([O-])=C1OP(=O)([O-])[O-].[Na+].[Na+].[Na+] [Sodium ascorbyl phosphate from DSM, Sodium ascorbyl phosphate] | –
5 | – | O=C1O[C@H]([C@@H](O)CO)C(O)=C1O [vitamin C, L-ascorbic acid] | vitamin C degradation products (HPLC) [3]: degradation products are visible
